Assay: Particle size of spray-dried porogen powders by optical microscope
Format: physicochemical
Settings: spray dried from ethanol solution
Description: Citric acid and benzoic acid were spray dried from ethanol solution (10% w/v solids) using a ProCepT model 4M8 system. The citric acid was collected in a single fraction in about 65% yield, while the benzoic acid was collected in two fractions with a total yield of around 55%. The powders were characterized for particle size and morphology using an Olympus BX60 optical microscope. […] The two preparations of benzoic acid differed primarily by the preponderance of ribbon-like particles in the second fraction. The citric acid powder blend was appreciably more dense than the benzoic acid powder blends, and the latter required more careful sweeping of the feeder hopper to promote conveyance. However, the ultimate extrusion, molding, and physical handling characteristics were similar between the blends.

## O=C(O)c1ccccc1 [benzoic acid]
  Particle size: 30-150 μm

## O=C(O)CC(O)(CC(=O)O)C(=O)O [citric acid]
  Particle size: 10-20 μm

— patent US12678400B2, “Implantable devices for drug delivery with reduced burst release” (TITAN PHARMACEUTICALS, INC., priority 2016, dated 2026)
